Test results as given in DBAASP.
Values after ≈ are worked out from the molar mass of the structure shown.

Tests used:
Experiment in all cases: ≥ marks a high value that may be exact or a test limit, other limits are often not marked, values filed in µg/mL are converted to µM
[1] = test system: Candida albicans ATCC 2002
[2] = test system: Escherichia coli ATCC 25922
[3] = test system: Staphylococcus aureus ATCC 25923
[4] = test system: Pseudomonas aeruginosa CMCCB 10104
[5] = test system: Klebsiella pneumoniae ATCC 13883
[6] = test system: Staphylococcus aureus ATCC 29213

| Structure (SMILES) | MIC [1] [µM] | MIC [2] [µM] | MIC [3] [µM] | MIC [4] [µM] | MIC [5] [µM] | MIC [6] [µM] |
| --- | --- | --- | --- | --- | --- | --- |
| CC[C@H](C)[C@H](NC(=O)CNC(=O)[C@H](CCCCN)NC(=O)CNC(=O)[C@H](CO)NC(=O)[C@H](Cc1ccccc1)NC(=O)[C@H](CCCCN)NC(=O)[C@H](CO)NC(=O)[C@H](Cc1ccccc1)NC(=O)[C@H](CC(C)C)NC(=O)CN)C(=O)N[C@@H](CCCCN)C(=O)N[C@@H](CC(N)=O)C(=O)N[C@@H](Cc1ccccc1)C(=O)N[C@@H](CC(C)C)C(=O)N[C@H](C(=O)N[C@@H](CCCCN)C(=O)NCC(=O)N[C@H](C(=O)N[C@@H](CCCCN)C(=O)N[C@@H](Cc1cnc[nH]1)C(=O)N[C@H](C(=O)NCC(=O)N[C@@H](CCCCN)C(=O)N[C@@H](CCC(=O)O)C(=O)N[C@H](C(=O)NCC(=O)N[C@@H](CCSC)C(=O)N[C@@H](CC(=O)O)C(=O)N[C@H](C(=O)N[C@H](C(=O)N[C@@H](CCCN=C(N)N)C(=O)N[C@H](C(=O)NCC(=O)N[C@H](C(=O)N[C@@H](CC(=O)O)C(=O)N[C@H](C(=O)N[C@@H](C)C(=O)NCC(=O)N[C@H]1CSSC[C@@H](C(=O)O)NC(=O)[C@H](CCC(=O)O)NC(=O)CNC(=O)[C@H](CCCCN)NC(=O)[C@H]([C@@H](C)CC)NC(=O)[C@H](CCCCN)NC1=O)C(C)C)[C@@H](C)CC)[C@@H](C)O)[C@@H](C)CC)C(C)C)C(C)C)[C@@H](C)CC)C(C)C)[C@@H](C)CC [GLFSKFSGKGIKNFLIKGVKHIGKEVGMDVIRTGIDVAGCKIKGEC] | 0.266 (≈ 1.3 µg/mL) | 0.512 (≈ 2.5 µg/mL) | 0.266 (≈ 1.3 µg/mL) | 0.512 (≈ 2.5 µg/mL) | – | – |
| CC[C@H](C)[C@H](NC(=O)CNC(=O)[C@H](CCCCN)NC(=O)CNC(=O)[C@H](C)NC(=O)[C@H](Cc1ccccc1)NC(=O)[C@H](CCCCN)NC(=O)[C@H](CO)NC(=O)[C@H](Cc1ccccc1)NC(=O)[C@H](CC(C)C)NC(=O)CN)C(=O)N[C@@H](CCCCN)C(=O)N[C@@H](CC(=O)O)C(=O)N[C@@H](CC(C)C)C(=O)N[C@H](C(=O)N[C@@H](Cc1ccccc1)C(=O)N[C@@H](CCCCN)C(=O)NCC(=O)N[C@H](C(=O)N[C@@H](CCCCN)C(=O)N[C@@H](Cc1cnc[nH]1)C(=O)N[C@H](C(=O)NCC(=O)N[C@@H](CCCCN)C(=O)N[C@@H](CCC(=O)O)C(=O)N[C@H](C(=O)NCC(=O)N[C@@H](CCSC)C(=O)N[C@@H](CC(=O)O)C(=O)N[C@H](C(=O)N[C@H](C(=O)N[C@@H](CCCN=C(N)N)C(=O)N[C@H](C(=O)NCC(=O)N[C@H](C(=O)N[C@@H](CC(=O)O)C(=O)N[C@H](C(=O)N[C@@H](C)C(=O)NCC(=O)N[C@H]1CSSC[C@@H](C(=O)O)NC(=O)[C@H](CCC(=O)O)NC(=O)CNC(=O)[C@H](CCCCN)NC(=O)[C@H]([C@@H](C)CC)NC(=O)[C@H](CCCCN)NC1=O)C(C)C)[C@@H](C)CC)[C@@H](C)O)[C@@H](C)CC)C(C)C)C(C)C)[C@@H](C)CC)C(C)C)[C@@H](C)CC [GLFSKFAGKGIKDLIFKGVKHIGKEVGMDVIRTGIDVAGCKIKGEC] | 0.555 (≈ 2.7 µg/mL) | 1.11 (≈ 5.4 µg/mL) | 1.11 (≈ 5.4 µg/mL) | 0.555 (≈ 2.7 µg/mL) | – | – |
| CC[C@H](C)[C@H](NC(=O)[C@H](CC(C)C)NC(=O)[C@@H](NC(=O)[C@H](Cc1ccccc1)NC(=O)[C@@H](NC(=O)[C@@H](N)CCC(N)=O)C(C)C)[C@@H](C)O)C(=O)N[C@@H](CCCCN)C(=O)NCC(=O)N[C@@H](C)C(=O)N[C@H](C(=O)N[C@@H](CCC(N)=O)C(=O)N[C@@H](CC(C)C)C(=O)N[C@H](C(=O)N[C@@H](CCCN=C(N)N)C(=O)N[C@@H](CCCCN)C(=O)N[C@H](C(=O)N[C@@H](CC(C)C)C(=O)NCC(=O)N[C@@H](CCC(=O)O)C(=O)N[C@@H](CCC(N)=O)C(=O)O)[C@@H](C)O)[C@@H](C)CC)[C@@H](C)O [QVFTLIKGATQLIRKTLGEQ] | 3.56 (≈ 8 µg/mL) | 1.78 (≈ 4 µg/mL) | 3.56 (≈ 8 µg/mL) | 7.13 (≈ 16 µg/mL) | – | – |
| CC[C@H](C)[C@H](NC(=O)[C@H](CC(C)C)NC(=O)[C@H](CC(C)C)NC(=O)[C@H](CC(=O)O)NC(=O)[C@H](CCCCN)NC(=O)[C@@H](NC(=O)[C@@H](NC(=O)CNC(=O)[C@H](CC(C)C)NC(=O)[C@@H](NC(=O)[C@@H](N)CO)C(C)C)[C@@H](C)O)C(C)C)C(=O)NCC(=O)N[C@@H](C)C(=O)NCC(=O)N[C@@H](CCCCN)C(=O)N[C@@H](CO)C(=O)N[C@@H](C)C(=O)N[C@@H](C)C(=O)N[C@@H](CCC(N)=O)C(=O)N[C@@H](CO)C(=O)N[C@H](C(=O)N[C@@H](CC(C)C)C(=O)N[C@H](C(=O)N[C@@H](C)C(=O)N[C@@H](CC(C)C)C(=O)N[C@@H](CO)C(=O)N[C@H]1CSSC[C@@H](C(=O)O)NC(=O)[C@H](CO)NC(=O)[C@H](CC(N)=O)NC(=O)[C@H](CO)NC(=O)[C@H](CC(C)C)NC(=O)[C@H](CCCCN)NC1=O)[C@@H](C)O)C(C)C [SVLGTVKDLLIGAGKSAAQSVLTALSCKLSNSC] | 3.4 (≈ 11 µg/mL) | 1.7 (≈ 5.5 µg/mL) | 3.4 (≈ 11 µg/mL) | 6.8 (≈ 22 µg/mL) | – | – |
| CC[C@H](C)[C@H](NC(=O)CN)C(=O)N[C@@H](Cc1ccccc1)C(=O)N[C@@H](CO)C(=O)N[C@@H](CCCCN)C(=O)N[C@H](C(=O)N[C@@H](CO)C(=O)NCC(=O)N[C@@H](CCCCN)C(=O)N[C@@H](C)C(=O)N[C@H](C(=O)N[C@@H](CCCCN)C(=O)N[C@@H](CC(N)=O)C(=O)N[C@@H](CC(C)C)C(=O)N[C@@H](Cc1ccccc1)C(=O)N[C@H](C(=O)N[C@@H](CCCCN)C(=O)NCC(=O)N[C@@H](C)C(=O)N[C@@H](CCCCN)C(=O)N[C@@H](CC(N)=O)C(=O)N[C@H](C(=O)NCC(=O)N[C@@H](CCCCN)C(=O)N[C@@H](CCC(=O)O)C(=O)N[C@H](C(=O)NCC(=O)N[C@@H](CCSC)C(=O)N[C@@H](CC(=O)O)C(=O)N[C@H](C(=O)N[C@H](C(=O)N[C@@H](CCCN=C(N)N)C(=O)N[C@H](C(=O)NCC(=O)N[C@@H](CCSC)C(=O)N[C@@H](CC(=O)O)C(=O)N[C@H](C(=O)N[C@H](C(=O)NCC(=O)N[C@H]1CSSC[C@@H](C(=O)O)NC(=O)[C@H](CCC(=O)O)NC(=O)CNC(=O)[C@H](CCCCN)NC(=O)[C@H]([C@@H](C)CC)NC(=O)[C@H](CCCCN)NC1=O)C(C)C)C(C)C)[C@@H](C)O)C(C)C)C(C)C)C(C)C)C(C)C)[C@@H](C)CC)[C@@H](C)CC)[C@@H](C)CC [GIFSKISGKAIKNLFIKGAKNVGKEVGMDVVRTGMDVVGCKIKGEC] | 0.435 (≈ 2.1 µg/mL) | 0.849 (≈ 4.1 µg/mL) | 0.849 (≈ 4.1 µg/mL) | 1.7 (≈ 8.2 µg/mL) | – | – |
| CC[C@H](C)[C@H](NC(=O)[C@H](C)NC(=O)[C@H](CC(C)C)NC(=O)[C@H](CCC(=O)O)NC(=O)[C@H](CCCCN)NC(=O)[C@H](Cc1ccccc1)NC(=O)[C@@H](NC(=O)[C@H](CO)NC(=O)[C@H](CC(C)C)NC(=O)[C@H](Cc1ccccc1)NC(=O)[C@@H](N)CO)[C@@H](C)O)C(=O)N[C@@H](CC(N)=O)C(=O)N[C@@H](C)C(=O)N[C@@H](C)C(=O)N[C@@H](CCCCN)C(=O)N[C@@H](CC(N)=O)C(=O)N[C@@H](C)C(=O)NCC(=O)N[C@@H](CCC(N)=O)C(=O)N[C@@H](CO)C(=O)N[C@H](C(=O)N[C@@H](CC(C)C)C(=O)N[C@@H](Cc1cnc[nH]1)C(=O)N[C@H](C(=O)N[C@@H](CC(C)C)C(=O)N[C@@H](CO)C(=O)N[C@H]1CSSC[C@@H](C(=O)O)NC(=O)[C@H]([C@@H](C)O)NC(=O)[C@H](CCCCN)NC(=O)[C@H](CC(=O)O)NC(=O)[C@H](CC(C)C)NC(=O)[C@H](CCCCN)NC1=O)[C@@H](C)O)[C@@H](C)CC [SFLSTFKELAINAAKNAGQSILHTLSCKLDKTC] | 1.44 (≈ 5.1 µg/mL) | 5.74 (≈ 20.4 µg/mL) | 2.87 (≈ 10.2 µg/mL) | 5.74 (≈ 20.4 µg/mL) | – | – |
| CC[C@H](C)[C@H](NC(=O)[C@H](C)NC(=O)[C@@H](N)C(C)C)C(=O)N[C@@H](C)C(=O)N[C@@H](CC(C)C)C(=O)N[C@@H](CCCCN)C(=O)N[C@@H](C)C(=O)N[C@@H](C)C(=O)N[C@@H](Cc1cnc[nH]1)C(=O)N[C@@H](Cc1ccc(O)cc1)C(=O)N[C@@H](C)C(=O)N[C@H](C(=O)N[C@@H](Cc1cnc[nH]1)C(=O)N[C@@H](CCCCN)C(=O)N[C@@H](CCC(=O)O)C(=O)O)[C@@H](C)O [VAIALKAAHYATHKE] | – | – | – | – | ≥ 78.9 | 39.4 (≈ 64 µg/mL) |
| CC[C@H](C)[C@H](NC(=O)CN)C(=O)N[C@@H](Cc1ccccc1)C(=O)N[C@H](C(=O)N[C@@H](CC(C)C)C(=O)N[C@H](C(=O)N[C@@H](CCCCN)C(=O)NCC(=O)N[C@@H](C)C(=O)N[C@@H](C)C(=O)N[C@@H](CCCCN)C(=O)N[C@@H](CC(C)C)C(=O)N[C@H](C(=O)NCC(=O)N[C@@H](CCCCN)C(=O)N[C@H](C(=O)N[C@H](C(=O)N[C@@H](C)C(=O)N[C@@H](CCCCN)C(=O)N[C@@H](CCC(=O)O)C(=O)N[C@@H](C)C(=O)NCC(=O)N[C@@H](CCCCN)C(=O)N[C@H](C(=O)NCC(=O)N[C@@H](CC(C)C)C(=O)N[C@@H](CCC(=O)O)C(=O)N[C@@H](CC(C)C)C(=O)N[C@@H](CCSC)C(=O)N[C@@H](C)C(=O)N[C@H]1CSSC[C@@H](C(=O)O)NC(=O)[C@H](CCC(N)=O)NC(=O)[C@H](CC(N)=O)NC(=O)[C@H]([C@@H](C)O)NC(=O)[C@H]([C@@H](C)CC)NC(=O)[C@H](CCCCN)NC1=O)[C@@H](C)O)C(C)C)[C@@H](C)O)[C@@H](C)CC)[C@@H](C)CC)[C@@H](C)O [GIFTLIKGAAKLIGKTVAKEAGKTGLELMACKITNQC] | 2.22 (≈ 8.5 µg/mL) | 2.22 (≈ 8.5 µg/mL) | 1.13 (≈ 4.3 µg/mL) | 1.13 (≈ 4.3 µg/mL) | – | – |
| CC[C@H](C)[C@H](NC(=O)CN)C(=O)N[C@@H](Cc1ccccc1)C(=O)N[C@@H](CC(C)C)C(=O)N[C@@H](CCCCN)C(=O)N[C@H](C(=O)N[C@@H](CC(C)C)C(=O)NCC(=O)N[C@H](C(=O)NCC(=O)N[C@@H](CCCCN)C(=O)N[C@@H](CCCCN)C(=O)N[C@H](C(=O)N[C@@H](CC(C)C)C(=O)N[C@H]1CSSC[C@@H](C(=O)O)NC(=O)[C@H](CC(C)C)NC(=O)CNC(=O)[C@H](CO)NC(=O)[C@H](C(C)C)NC(=O)CNC1=O)C(C)C)C(C)C)C(C)C [GIFLKVLGVGKKVLCGVSGLC] | 5.17 (≈ 10.8 µg/mL) | 5.17 (≈ 10.8 µg/mL) | 2.58 (≈ 5.39 µg/mL) | 10.3 (≈ 21.6 µg/mL) | – | – |
